Tests used:
Assay type in all cases: in vivo
Echinochloa crus-galli [1] = assay: Test Example 4: herbicidal effect test by stem and leaf treatment in upland field; conditions: 120 g per 10 ares, sprayed seven days after sowing, upland soil, 14 days after application; for inhibition at 1200 g/ha: Echinochloa crus-galli, read-out: weed inhibition rate
[2] = tested on: Echinochloa crus-galli var. formosensis; assay: Test Example 5: herbicidal effect test by soil application in paddy rice (low dose); conditions: Echinochloa crus-galli, soil, 336 h; 7.5 g per 10 ares; applied immediately after sowing, flooded pots; 14 days after application; read-out: weed inhibition rate
Protocol: (§1) The present test was conducted in duplicate for each chemical concentration group, and the weed inhibition rate (%) was determined 14 days after chemical application using the following formula (Math. 1). [formula]
Wagner pots with an area of […] were filled with paddy soil, followed by addition of water and incorporation of chemical fertilizer (N:P:K = 16:16:16), after which puddling was performed. After that, seeds of Echinochloa crus-galli var. formosensis, broad-leaved weeds (Monochoria vaginalis), and Scirpus juncoides were sown at a depth of 0 cm to 1 cm, 30 seeds each. Immediately after sowing, the pots were flooded and a water depth of approximately 3 cm was maintained. Subsequent management was conducted in a glass greenhouse. Immediately thereafter, an emulsifiable concentrate prepared according to Formulation Example 5 using the compound shown below was diluted with water, and a specified amount of the diluted solution was applied by dropper. The amount of the active ingredient to be applied was equivalent to 7.5 g per 10 ares. […]

Digitaria ciliaris [3] = assay: Test Example 3: herbicidal effect test by soil application in upland field; conditions: 120 g per 10 ares, sprayed one day after sowing, 14 days after application; for inhibition at 1200 g/ha: Digitaria ciliaris, read-out: weed inhibition rate
Summary of the method: (§2)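 Pre-emergence test: seeds mixed into top 1 cm of alluvial loam upland soil in pots; emulsifiable concentrate diluted in water sprayed on soil one day after sowing at 100 L/10 a, 120 g a.i./10 a. Weed inhibition rate (%) scored at 14 days, in duplicate.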

Echinochloa crus-galli [4] = assay: as above; conditions: 120 g per 10 ares, sprayed one day after sowing, 14 days after application; for inhibition at 1200 g/ha: Echinochloa crus-galli, read-out: weed inhibition rate
Summary of the method: as §2

[5] = tested on: Echinochloa crus-galli var. formosensis; assay: Test Example 6: herbicidal effect test by application during growth period of paddy rice (low dose); conditions: Echinochloa crus-galli; 7.5 g per 10 ares; applied seven days after sowing, flooded pots; 14 days after application; read-out: weed inhibition rate
Protocol: as §1
Wagner pots with an area of […] were filled with paddy soil, followed by addition of water and incorporation of chemical fertilizer (N:P:K = 16:16:16), after which puddling was performed. After that, seeds of Echinochloa crus-galli var. formosensis, broad-leaved weeds (Monochoria vaginalis), and Scirpus juncoides were sown at a depth of 0 cm to 1 cm, 30 seeds each. Immediately after sowing, the pots were flooded and a water depth of approximately 3 cm was maintained. Subsequent management was conducted in a glass greenhouse. Seven days after sowing, an emulsifiable concentrate prepared according to Formulation Example 5 using the compound shown below was diluted with water, and a specified amount of the diluted solution was applied by dropper. The amount of the active ingredient to be applied was equivalent to 7.5 g per 10 ares. The test was conducted in duplicate for each chemical concentration group, and the herbicidal effect was evaluated 14 days after chemical application using the same criteria as in Test Example 1.

Scirpus juncoides [6] = assay: Test Example 2: herbicidal effect test by application during growth period of paddy rice; conditions: 120 g per 10 ares, applied seven days after sowing, flooded pots, 14 days after application; for inhibition at 1200 g/ha: Schoenoplectiella juncoides, read-out: weed inhibition rate
Summary of the method: (§3)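 Herbicidal effect was scored 14 days after treatment, in duplicate per concentration. Weeds sown 0–1 cm deep in puddled, fertilized paddy soil under about 3 cm of standing water received a water-diluted emulsifiable concentrate by dropper 7 days post-sowing, at 120 g a.i. per 10 ares.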

[7] = tested on: Echinochloa crus-galli var. formosensis; assay: as above; conditions: 120 g per 10 ares, applied seven days after sowing, flooded pots, 14 days after application; for inhibition at 1200 g/ha: Echinochloa crus-galli, read-out: weed inhibition rate
Summary of the method: as §3

Scirpus juncoides [8] = assay: Test Example 1: herbicidal effect test by soil application in paddy rice; conditions: 120 g active ingredient per 10 ares, applied immediately after sowing, flooded pots, 14 days after application; for pest or weed control at 1200 g/ha: Schoenoplectiella juncoides, soil, 336 h, read-out: weed inhibition rate
Summary of the method: (§4)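 Weeds sown 0–1 cm deep (30 seeds each) into fertilized, puddled paddy soil in Wagner pots. Pots are flooded immediately, water held near 3 cm, and the diluted emulsifiable concentrate is dripped in at once, delivering 120 g active ingredient per 10 ares under glass-greenhouse management.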

[9] = tested on: Echinochloa crus-galli var. formosensis; assay: as above; conditions: 120 g active ingredient per 10 ares, applied immediately after sowing, flooded pots, 14 days after application; for pest or weed control at 1200 g/ha: Echinochloa crus-galli, soil, 336 h, read-out: weed inhibition rate
Summary of the method: as §4

Digitaria ciliaris [10] = assay: Test Example 4: herbicidal effect test by stem and leaf treatment in upland field; conditions: 120 g per 10 ares, sprayed seven days after sowing, upland soil, 14 days after application; for inhibition at 1200 g/ha: Digitaria ciliaris, read-out: weed inhibition rate
Echinochloa crus-galli [11] = assay: Test Example 8: herbicidal effect test by stem and leaf treatment in upland field (low dose); conditions: Echinochloa crus-galli; 7.5 g per 10 ares; sprayed seven days after sowing, upland soil; 14 days after application; read-out: weed inhibition rate
Protocol: as §1
Pots with an area of 36 cm^2 were filled with upland soil (alluvial loam), twenty seeds each of weeds of Digitaria ciliaris, and Echinochloa crus-galli were uniformly mixed with the top 1 cm layer of soil and the surface was lightly pressed down. Seven days after sowing, an emulsifiable concentrate prepared according to Formulation Example 5 using the compound shown below was diluted with water, and the diluted solution was sprayed onto the soil surface at a rate of 100 liters per 10 ares. The amount of the active ingredient to be applied was equivalent to 7.5 g per 10 ares. Fourteen days after chemical application, the herbicidal effect was evaluated according to the same criteria as in Test Example 1.

CC#CCO[C@@H]1C[C@]2(C(C)C)O[C@@]1(C)C[C@@H]2Br [1-674, (1S,2R,4R,5S)-5-bromo-2-but-2-ynoxy-1-methyl-4-isopropyl-7-oxabicyclo[2.2.1]heptane]
≥ 80%: inhibition at 1200 g/ha (Echinochloa crus-galli [1]) | inhibition at 75 g/ha [2] | inhibition at 1200 g/ha (Digitaria ciliaris [3]) | inhibition at 1200 g/ha (Echinochloa crus-galli [4]) | inhibition at 75 g/ha [5] | inhibition at 1200 g/ha (Scirpus juncoides [6]) | inhibition at 1200 g/ha [7] | pest or weed control at 1200 g/ha (Scirpus juncoides [8]) | pest or weed control at 1200 g/ha [9] | inhibition at 1200 g/ha (Digitaria ciliaris [10])

CC(C)[C@]12C[C@@H](OCC3CCCCC3)[C@](C)(C[C@@H]1I)O2 [1-736, (1R,2S,4S,5R)-5-(cyclohexylmethoxy)-2-iodo-1-isopropyl-4-methyl-7-oxabicyclo[2.2.1]heptane]
≥ 80%: inhibition at 1200 g/ha (Echinochloa crus-galli [1]) | inhibition at 75 g/ha [2] | inhibition at 1200 g/ha (Digitaria ciliaris [3]) | inhibition at 1200 g/ha (Echinochloa crus-galli [4]) | inhibition at 75 g/ha [5] | inhibition at 1200 g/ha (Scirpus juncoides [6]) | inhibition at 1200 g/ha [7] | pest or weed control at 1200 g/ha (Scirpus juncoides [8]) | pest or weed control at 1200 g/ha [9] | inhibition at 1200 g/ha (Digitaria ciliaris [10])

CC(=O)O[C@H]1C[C@]2(C)O[C@@]1(C(C)C)C[C@H]2OCc1ccccc1F (racemic) [1-480, [(1R,2S,4S,SR)-5-[(2-fluorophenyl)methoxy]-4-methyl-1-isopropyl-7-oxabicyclo[2.2.1]heptan-2-yl]acetate]
≥ 80%: weed inhibition rate (Echinochloa crus-galli [1]) | weed inhibition rate (Digitaria ciliaris [3]) | weed inhibition rate (Echinochloa crus-galli [4]) | weed inhibition rate (Scirpus juncoides [6]) | weed inhibition rate [7] | weed inhibition rate (Scirpus juncoides [8]) | weed inhibition rate [9] | weed inhibition rate (Digitaria ciliaris [10])

C#CCO[C@H]1C[C@]2(C)O[C@@]1(C(C)C)C[C@H]2OCc1ccccc1F [1-1607, (1S,2R,4R,5S)-2-[(2-fluorophenyl)methoxy]-1-methyl-4-isopropyl-5-prop-2-ynoxy-7-oxabicyclo[2.2.1]heptane]
≥ 80%: inhibition at 1200 g/ha (Echinochloa crus-galli [1]) | inhibition at 1200 g/ha (Digitaria ciliaris [3]) | inhibition at 1200 g/ha (Echinochloa crus-galli [4]) | inhibition at 1200 g/ha (Scirpus juncoides [6]) | inhibition at 1200 g/ha [7] | pest or weed control at 1200 g/ha (Scirpus juncoides [8]) | pest or weed control at 1200 g/ha [9] | inhibition at 1200 g/ha (Digitaria ciliaris [10])

CC(C)[C@@]12C[C@H](OCc3ccccc3F)[C@@](C)(C[C@@H]1C)O2 [1-1222, (1R,2S,4S,5S)-2-[(2-fluorophenyl)methoxy]-1,5-dimethyl-4-isopropyl-7-oxabicyclo[2.2.1]heptane]
≥ 80%: inhibition at 1200 g/ha (Echinochloa crus-galli [1]) | inhibition at 75 g/ha (Echinochloa crus-galli [11])

Cc1cccc(C)c1CO[C@@H]1C[C@]2(C(C)C)O[C@@]1(C)C[C@@H]2Br [1-17, (1S,2R,4R,5S)-5-bromo-2-[(2,6-dimethylphenyl)methoxy]-1-methyl-4-isopropyl-7-oxabicyclo[2.2.1]heptane]
≥ 80%: inhibition at 1200 g/ha (Echinochloa crus-galli [1]) | inhibition at 75 g/ha [2] | inhibition at 75 g/ha (Echinochloa crus-galli [11]) | inhibition at 1200 g/ha (Digitaria ciliaris [3]) | inhibition at 1200 g/ha (Echinochloa crus-galli [4]) | inhibition at 1200 g/ha [7] | pest or weed control at 1200 g/ha [9] | inhibition at 1200 g/ha (Digitaria ciliaris [10])

CCC[C@]1(O)C[C@]2(C)O[C@@]1(C(C)C)C[C@H]2OCc1ccccc1F [1-934, (1R,2S,4S,5R)-5-[(2-fluorophenyl)methoxy]-1-isopropyl-4-methyl-2-propyl-7-oxabicyclo[2.2.1]heptan-2-ol]
≥ 80%: inhibition at 1200 g/ha (Echinochloa crus-galli [1]) | inhibition at 75 g/ha (Echinochloa crus-galli [11]) | inhibition at 1200 g/ha [7] | inhibition at 1200 g/ha (Digitaria ciliaris [10])

CC(C)[C@@]12C[C@H](OCc3ccccn3)[C@@](C)(C[C@H]1I)O2 [1-1126, 2-[[(1R,2S,4S,5R)-5-iodo-1-methyl-4-isopropyl-7-oxabicyclo[2.2.1]heptan-2-yl]oxymethyl]pyridine]
≥ 80%: inhibition at 1200 g/ha (Echinochloa crus-galli [1]) | inhibition at 1200 g/ha (Digitaria ciliaris [3]) | inhibition at 1200 g/ha (Echinochloa crus-galli [4]) | inhibition at 1200 g/ha (Scirpus juncoides [6]) | inhibition at 1200 g/ha [7] | pest or weed control at 1200 g/ha (Scirpus juncoides [8]) | pest or weed control at 1200 g/ha [9] | inhibition at 1200 g/ha (Digitaria ciliaris [10])

CC(C)[C@@]12C=C[C@@](C)(O1)[C@@H](OCc1ccccc1F)C2 [3-750, (1S,4R,5S)-5-[(2-fluorophenyl)methoxy]-4-methyl-1-isopropyl-7-oxabicyclo[2.2.1]hept-2-ene]
≥ 80%: inhibition at 1200 g/ha (Echinochloa crus-galli [1]) | inhibition at 1200 g/ha (Digitaria ciliaris [3]) | inhibition at 1200 g/ha (Echinochloa crus-galli [4]) | inhibition at 1200 g/ha (Scirpus juncoides [6]) | inhibition at 1200 g/ha [7] | pest or weed control at 1200 g/ha (Scirpus juncoides [8]) | pest or weed control at 1200 g/ha [9] | inhibition at 1200 g/ha (Digitaria ciliaris [10])

CC#CCO[C@@H]1C[C@]2(C(C)C)O[C@@]1(C)CC2Br (stereo partly drawn) [1-1336, (1S,2R,4R)-5-bromo-2-but-2-ynoxy-1-methyl-4-isopropyl-7-oxabicyclo[2.2.1]heptane]
≥ 80%: inhibition at 1200 g/ha (Echinochloa crus-galli [1]) | inhibition at 1200 g/ha (Digitaria ciliaris [3]) | inhibition at 1200 g/ha (Echinochloa crus-galli [4]) | inhibition at 1200 g/ha (Scirpus juncoides [6]) | inhibition at 1200 g/ha [7] | pest or weed control at 1200 g/ha (Scirpus juncoides [8]) | pest or weed control at 1200 g/ha [9] | inhibition at 1200 g/ha (Digitaria ciliaris [10])

CC(C)[C@]12C=C[C@](C)(O1)[C@H](OCc1ccccn1)C2 [3-738, 2-[[(1S,2R,4R)-1-methyl-4-isopropyl-7-oxabicyclo[2.2.1]hept-5-en-2-yl]oxymethyl]pyridine]
≥ 80%: inhibition at 1200 g/ha (Echinochloa crus-galli [1]) | inhibition at 1200 g/ha (Digitaria ciliaris [3]) | inhibition at 1200 g/ha (Echinochloa crus-galli [4]) | inhibition at 1200 g/ha (Scirpus juncoides [6]) | inhibition at 1200 g/ha [7] | pest or weed control at 1200 g/ha (Scirpus juncoides [8]) | pest or weed control at 1200 g/ha [9] | inhibition at 1200 g/ha (Digitaria ciliaris [10])

CC(C)[C@@]12C[C@H](OCc3ccccc3F)[C@@](C)(C[C@H]1Br)O2 [1-1028, (1R,2S,4S,5R)-5-bromo-2-[(2-fluorophenyl)methoxy]-1-methyl-4-isopropyl-7-oxabicyclo[2.2.1]heptane]
≥ 80%: inhibition at 1200 g/ha (Echinochloa crus-galli [1]) | inhibition at 75 g/ha (Echinochloa crus-galli [11]) | inhibition at 1200 g/ha (Digitaria ciliaris [10])

CC(C)[C@@]12C=C[C@@](C)(O1)[C@@H](OCc1ccccc1)C2 [3-748, (1S,4R,5S)-4-methyl-5-phenylmethoxy-1-isopropyl-7-oxabicyclo[2.2.1]hept-2-ene]
≥ 80%: inhibition at 1200 g/ha (Echinochloa crus-galli [1]) | inhibition at 1200 g/ha (Digitaria ciliaris [3]) | inhibition at 1200 g/ha (Echinochloa crus-galli [4]) | inhibition at 1200 g/ha (Scirpus juncoides [6]) | inhibition at 1200 g/ha [7] | pest or weed control at 1200 g/ha (Scirpus juncoides [8]) | pest or weed control at 1200 g/ha [9] | inhibition at 1200 g/ha (Digitaria ciliaris [10])

— patent publication EP4707280A1, “1,4-CINEOLE DERIVATIVE AND INTERMEDIATE THEREOF, HERBICIDE CONTAINING SAID DERIVATIVE AS ACTIVE INGREDIENT, METHOD FOR USING HERBICIDE, AND METHOD FOR PREPARING AGROCHEMICAL COMPOSITION” (HOKKO CHEMICAL INDUSTRY CO., LTD., priority 2023, dated 2024)
